Data published in ChEMBL document CHEMBL5260842 (J Med Chem, 2019).
Active and inactive are the calls of the source.

Assays:
[1] = target: T1, von Hippel-Lindau disease tumor suppressor/Androgen receptor (Homo sapiens, UniProt P10275+P40337); assay: Protac activity at VHL/AR in AR-positive human LNCaP cells assessed as induction of androgen receptor degradation at 0.01 uM incubated for 6 hrs by Western blot analysis (reference value: 0%); format: cell-based
Target sequence in this assay (P10275 whole entry, looked up): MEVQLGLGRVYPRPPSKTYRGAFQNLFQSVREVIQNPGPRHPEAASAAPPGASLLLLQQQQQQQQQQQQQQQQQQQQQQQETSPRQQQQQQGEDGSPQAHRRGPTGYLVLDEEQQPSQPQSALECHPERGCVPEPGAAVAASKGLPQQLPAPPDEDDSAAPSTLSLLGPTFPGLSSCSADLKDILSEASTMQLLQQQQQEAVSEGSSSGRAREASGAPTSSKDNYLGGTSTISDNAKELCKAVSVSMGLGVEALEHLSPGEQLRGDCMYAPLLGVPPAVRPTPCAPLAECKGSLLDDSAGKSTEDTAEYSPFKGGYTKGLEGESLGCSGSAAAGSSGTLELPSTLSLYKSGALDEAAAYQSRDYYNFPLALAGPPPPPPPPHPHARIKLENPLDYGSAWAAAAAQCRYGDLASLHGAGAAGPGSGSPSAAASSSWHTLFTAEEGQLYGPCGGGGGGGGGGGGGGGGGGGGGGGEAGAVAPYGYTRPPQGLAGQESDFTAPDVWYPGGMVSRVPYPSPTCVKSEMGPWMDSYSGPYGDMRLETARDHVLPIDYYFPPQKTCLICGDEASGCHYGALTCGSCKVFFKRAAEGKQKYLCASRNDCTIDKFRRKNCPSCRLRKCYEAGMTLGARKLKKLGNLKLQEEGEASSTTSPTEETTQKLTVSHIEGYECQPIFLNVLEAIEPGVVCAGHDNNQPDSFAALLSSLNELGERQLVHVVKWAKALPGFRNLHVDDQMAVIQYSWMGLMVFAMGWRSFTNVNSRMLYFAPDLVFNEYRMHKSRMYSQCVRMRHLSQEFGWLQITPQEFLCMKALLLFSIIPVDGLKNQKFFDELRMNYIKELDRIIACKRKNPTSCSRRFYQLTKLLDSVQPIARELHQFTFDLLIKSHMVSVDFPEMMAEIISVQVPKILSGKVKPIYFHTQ
Target sequence in this assay (P40337 whole entry, looked up): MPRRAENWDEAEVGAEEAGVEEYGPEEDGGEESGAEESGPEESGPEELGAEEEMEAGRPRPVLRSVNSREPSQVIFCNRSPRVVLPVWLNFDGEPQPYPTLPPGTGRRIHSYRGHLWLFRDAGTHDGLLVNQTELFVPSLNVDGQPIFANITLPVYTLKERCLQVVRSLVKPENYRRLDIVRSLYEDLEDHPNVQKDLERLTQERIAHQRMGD

[2] = target: T1, von Hippel-Lindau disease tumor suppressor/Androgen receptor; assay: Protac activity at VHL/AR in AR-positive human LNCaP cells assessed as induction of androgen receptor degradation at 0.1 uM incubated for 6 hrs by Western blot analysis (reference value: 0%); format: cell-based
Target sequence in this assay (P10275 whole entry, looked up): as the sequence (P10275 whole entry, looked up) above
Target sequence in this assay (P40337 whole entry, looked up): as the sequence (P40337 whole entry, looked up) above

[3] = target: T1, von Hippel-Lindau disease tumor suppressor/Androgen receptor; assay: Protac activity at VHL/AR in AR-positive human LNCaP cells assessed as reduction in protein level at 100 nM measured after 2 to 4 hrs by Western blot analysis; format: cell-based; details: time 2-4 hrs
Target sequence in this assay (P10275 whole entry, looked up): as the sequence (P10275 whole entry, looked up) above
Target sequence in this assay (P40337 whole entry, looked up): as the sequence (P40337 whole entry, looked up) above

[4] = target: T1, von Hippel-Lindau disease tumor suppressor/Androgen receptor; assay: Protac activity at VHL/AR in AR-positive human VCaP cells assessed as reduction in protein level at 100 nM measured after 2 to 4 hrs by Western blot analysis; format: cell-based; details: time 2-4 hrs
Target sequence in this assay (P10275 whole entry, looked up): as the sequence (P10275 whole entry, looked up) above
Target sequence in this assay (P40337 whole entry, looked up): as the sequence (P40337 whole entry, looked up) above

[5] = target: T1, von Hippel-Lindau disease tumor suppressor/Androgen receptor; assay: Protac activity at VHL/AR in human LNCaP cells assessed as induction of protein degradation measured after 24 hrs by Western blot analysis; format: cell-based
Target sequence in this assay (P10275 whole entry): as the sequence (P10275 whole entry, looked up) above
Target sequence in this assay (P40337 whole entry): as the sequence (P40337 whole entry, looked up) above

[6] = target: T1, von Hippel-Lindau disease tumor suppressor/Androgen receptor; assay: Protac activity at VHL/AR in human VCaP cells assessed as induction of protein degradation measured after 24 hrs by Western blot analysis; format: cell-based
Target sequence in this assay (P10275 whole entry): as the sequence (P10275 whole entry, looked up) above
Target sequence in this assay (P40337 whole entry): as the sequence (P40337 whole entry, looked up) above

[7] = target: T1, von Hippel-Lindau disease tumor suppressor/Androgen receptor; assay: Protac activity at VHL/AR in human 22Rv1 cells assessed as induction of protein degradation measured after 24 hrs by Western blot analysis; format: cell-based
Target sequence in this assay (P10275 whole entry): as the sequence (P10275 whole entry, looked up) above
Target sequence in this assay (P40337 whole entry): as the sequence (P40337 whole entry, looked up) above

[8] = target: T1, von Hippel-Lindau disease tumor suppressor/Androgen receptor; assay: Protac activity at VHL/AR in human VCaP cells assessed as induction of protein degradation at 10 nM measured after 24 hrs by Western blot analysis relative to control; format: cell-based
Target sequence in this assay (P10275 whole entry, looked up): as the sequence (P10275 whole entry, looked up) above
Target sequence in this assay (P40337 whole entry, looked up): as the sequence (P40337 whole entry, looked up) above

LNCaP [9] = assay: Downregulation of PSA mRNA expression in human LNCaP cells measured after 24 hrs by qRT-PCR analysis; format: functional, cell-based; details: dose 0.1-10000 nM
LNCaP [10] = assay: Downregulation of TMPRSS2 mRNA expression in human LNCaP cells measured after 24 hrs by qRT-PCR analysis; format: functional, cell-based; details: dose 0.1-10000 nM
LNCaP [11] = assay: Downregulation of FKBP5 mRNA expression in human LNCaP cells measured after 24 hrs by qRT-PCR analysis; format: functional, cell-based; details: dose 0.1-10000 nM
VCaP [12] = assay: Downregulation of PSA mRNA expression in human VCaP cells measured after 24 hrs by regular serum based qRT-PCR analysis; format: functional, cell-based; details: dose 1-1000 nM
VCaP [13] = assay: Downregulation of TMPRSS2 mRNA expression in human VCaP cells measured after 24 hrs by regular serum based qRT-PCR analysis; format: functional, cell-based; details: dose 1-1000 nM
VCaP [14] = assay: Downregulation of FKBP5 mRNA expression in human VCaP cells measured after 24 hrs by regular serum based qRT-PCR analysis; format: functional, cell-based; details: dose 1-1000 nM
VCaP [15] = assay: Downregulation of PSA mRNA expression in human VCaP cells measured after 24 hrs by charcoal stripped serum based qRT-PCR analysis; format: functional, cell-based; details: dose 1-1000 nM
VCaP [16] = assay: Downregulation of TMPRSS2 mRNA expression in human VCaP cells measured after 24 hrs by charcoal stripped serum based qRT-PCR analysis; format: functional, cell-based; details: dose 1-1000 nM
VCaP [17] = assay: Downregulation of FKBP5 mRNA expression in human VCaP cells measured after 24 hrs by charcoal stripped serum based qRT-PCR analysis; format: functional, cell-based; details: dose 1-1000 nM
[18] = Downregulation of PSA mRNA expression in human LNCaP cells at 10 nM measured after 24 hrs by qRT-PCR analysis relative to control; format: functional
[19] = Downregulation of TMPRSS2 mRNA expression in human LNCaP cells at 10 nM measured after 24 hrs by qRT-PCR analysis relative to control; format: functional
[20] = Downregulation of PSA mRNA expression in human VCaP cells at 10 nM measured after 24 hrs by regular serum based qRT-PCR analysis relative to control; format: functional
[21] = Downregulation of TMPRSS2 mRNA expression in human VCaP cells at 10 nM measured after 24 hrs by regular serum based qRT-PCR analysis relative to control; format: functional
[22] = Downregulation of PSA mRNA expression in human VCaP cells at 10 nM measured after 24 hrs by charcoal stripped serum based qRT-PCR analysis relative to control; format: functional
[23] = Downregulation of TMPRSS2 mRNA expression in human VCaP cells at 10 nM measured after 24 hrs by charcoal stripped serum based qRT-PCR analysis relative to control; format: functional
VCaP [24] = assay: Downregulation of ERG gene expression in human VCaP cells measured after 24 hrs by charcoal stripped serum based qRT-PCR analysis; format: functional, cell-based; details: dose 1-1000 nM
VCaP [25] = assay: Downregulation of ERG gene expression in human VCaP cells measured after 24 hrs by regular serum based qRT-PCR analysis; format: functional, cell-based; details: dose 1-1000 nM
LNCaP [26] = assay: Cytotoxicity against AR-positive human LNCaP cells assessed as inhibition of cell growth incubated for 7 days in presence of AR agonist, R1881 in charcoal stripped medium by WST-8 assay; format: functional, cell-based; details: 168 h
VCaP [27] = assay: Cytotoxicity against AR-positive human VCaP cells assessed as inhibition of cell growth incubated for 7 days in presence of AR agonist, R1881 in charcoal stripped medium by WST-8 assay; format: functional, cell-based; details: 168 h
CWR22R [28] = assay: Cytotoxicity against AR-positive human 22Rv1 cells assessed as inhibition of cell growth incubated for 7 days in regular culture medium by WST-8 assay; format: functional, cell-based; details: 22Rv1, 168 h
LNCaP [29] = assay: Potency index, ratio of enzalutamide IC50 to test compound IC50 for cytotoxicity against AR-positive human LNCaP cells assessed as inhibition of cell growth incubated for 7 days in presence of AR agonist, R1881 in charcoal stripped medium by WST-8 assay; format: functional; details: time 7 day
VCaP [30] = assay: Potency index, ratio of enzalutamide IC50 to test compound IC50 for cytotoxicity against AR-positive human VCaP cells assessed as inhibition of cell growth incubated for 7 days in presence of AR agonist, R1881 in charcoal stripped medium by WST-8 assay; format: functional; details: time 7 day
CWR22R [31] = assay: Potency index, ratio of enzalutamide IC50 to test compound IC50 for cytotoxicity against AR-positive human 22Rv1 cells assessed as inhibition of cell growth incubated for 7 days in regular culture medium by WST-8 assay; format: functional; details: time 7 day
[32] = target: T1, von Hippel-Lindau disease tumor suppressor/Androgen receptor; assay: (§1) Protac activity at VHL/AR in AR-positive human LNCaP cells assessed as induction of androgen receptor degradation at 100 nM preincubated with N-((1r,3r)-3-(3-chloro-4-cyanophenoxy)-2,2,4,4-tetramethylcyclobutyl)-1-(2-hydroxyethyl)-1H-pyrazole-4-carboxamide for 2 hrs followed by compound addition and measured after 6 hrs by Western blot analysis; format: cell-based
Target sequence in this assay (P10275 whole entry, looked up): as the sequence (P10275 whole entry, looked up) above
Target sequence in this assay (P40337 whole entry, looked up): as the sequence (P40337 whole entry, looked up) above

[33] = target: T1, von Hippel-Lindau disease tumor suppressor/Androgen receptor; assay: (§2) Protac activity at VHL/AR in AR-positive human LNCaP cells assessed as induction of androgen receptor degradation at 100 nM preincubated with VHL ligand, (2S,4R)-4-hydroxy-1-((R)-3-methyl-2-(3-methylisoxazol-5-yl)butanoyl)-N-((S)-3-(methylamino)-1-(4-(4-methylthiazol-5-yl)phenyl)-3-oxopropyl)pyrrolidine-2-carboxamide for 2 hrs followed by compound addition and measured after 6 hrs by Western blot analysis; format: cell-based
[34] = target: T1, von Hippel-Lindau disease tumor suppressor/Androgen receptor; assay: Protac activity at VHL/AR in AR-positive human LNCaP cells assessed as induction of androgen receptor degradation at 100 nM preincubated with NEDD8 activating E1 enzyme inhibitor, MLN4924 for 2 hrs followed by compound addition and measured after 6 hrs by Western blot analysis; format: cell-based
[35] = target: T1, von Hippel-Lindau disease tumor suppressor/Androgen receptor; assay: Protac activity at VHL/AR in AR-positive human LNCaP cells assessed as induction of androgen receptor degradation at 100 nM preincubated with proteasome inhibitor, MG132 for 2 hrs followed by compound addition and measured after 6 hrs by Western blot analysis; format: cell-based
[36] = target: T1, von Hippel-Lindau disease tumor suppressor/Androgen receptor; assay: as §1, with “VCaP” for “LNCaP”; format: cell-based
[37] = target: T1, von Hippel-Lindau disease tumor suppressor/Androgen receptor; assay: as §2, with “VCaP” for “LNCaP”; format: cell-based
[38] = target: T1, von Hippel-Lindau disease tumor suppressor/Androgen receptor; assay: Protac activity at VHL/AR in AR-positive human VCaP cells assessed as induction of androgen receptor degradation at 100 nM preincubated with NEDD8 activating E1 enzyme inhibitor, MLN4924 for 2 hrs followed by compound addition and measured after 6 hrs by Western blot analysis; format: cell-based
[39] = target: T1, von Hippel-Lindau disease tumor suppressor/Androgen receptor; assay: Protac activity at VHL/AR in AR-positive human VCaP cells assessed as induction of androgen receptor degradation at 100 nM preincubated with proteasome inhibitor, MG132 for 2 hrs followed by compound addition and measured after 6 hrs by Western blot analysis; format: cell-based
[40] = target: T1, von Hippel-Lindau disease tumor suppressor/Androgen receptor; assay: In vivo protac activity at VHL/AR in human VCaP cells xenografted SCID mouse assessed as reduction in PSA protein level in tumor at 50 mg/kg, ip administered as single dose measured after 3 to 48 hrs Western blot analysis; format: functional, organism-based; details: time 3-48 hrs
[41] = tested on: von Hippel-Lindau disease tumor suppressor/Androgen receptor (Homo sapiens); assay: In vivo protac activity at VHL/AR in human VCaP cells xenografted SCID mouse assessed as reduction in AR protein level in tumor at 50 mg/kg, ip administered as single dose measured after 3 to 48 hrs Western blot analysis; details: time 3-48 hrs

Cc1ncsc1-c1ccc([C@H](CC(=O)N2CCC(N3CCC(C#Cc4ccc(C(=O)N[C@H]5C(C)(C)[C@H](Oc6ccc(C#N)c(Cl)c6)C5(C)C)cc4)CC3)CC2)NC(=O)[C@@H]2C[C@@H](O)CN2C(=O)[C@@H](NC(=O)C2(F)CC2)C(C)(C)C)cc1
250 pM: IC50 (LNCaP [26])
340 pM: IC50 (VCaP [27])
>50%: Activity [18] | Activity [19] | Activity [20] | Activity [21] | Activity [22] | Activity [23]
89%: Activity [1]
> 95%: Activity [8]
99%: Activity [2]
10400 pM: EC50 [7]
860 pM: EC50 [5]
>100: Ratio IC50 (LNCaP [29]) | Ratio IC50 (VCaP [30]) | Ratio IC50 (CWR22R [31])
inactive: Activity [32] | Activity [33] | Activity [34] | Activity [35] | Activity [36] | Activity [37] | Activity [38] | Activity [39]
active: Activity [3] | Activity [4] | Activity (LNCaP [9]) Dose-Dependent Effect | Activity (LNCaP [10]) Dose-Dependent Effect | Activity (LNCaP [11]) Dose-Dependent Effect | Activity (VCaP [12]) Dose-Dependent Effect | Activity (VCaP [13]) Dose-Dependent Effect | Activity (VCaP [14]) Dose-Dependent Effect | Activity (VCaP [15]) Dose-Dependent Effect | Activity (VCaP [16]) Dose-Dependent Effect | Activity (VCaP [17]) Dose-Dependent Effect | Activity (VCaP [24]) Dose-Dependent Effect | Activity (VCaP [25]) Dose-Dependent Effect | Activity [40] | Activity [41]
760 pM: EC50 [6]
183000 pM: IC50 (CWR22R [28])
